One data set is described as follows: physchem. As for the experimental part: Numerous permeation enhancers were evaluated to identify suitable permeation enhancers, including permeation enhancers listed in Table 4 below that lists solubility of pramipexole in the respective permeation enhancers.

What is called solubility is how much of the substance goes into solution per volume.

In brackets after ≈: the same amount, converted by molar mass. Read-outs that look alike come from different tables or passages of the source.

`CCCN[C@H]1CCc2nc(N)sc2C1` [Pramipexole]: the API solubility result runs as follows: (in adhesive DURO-TAK 87-2054 (acrylate-vinylacetate, —COOH)) “adequate solubility”; (in adhesive DURO-TAK 87-2054 (acrylate-vinylacetate, —COOH), listed as API) 10%; (in adhesive DURO-TAK 87-2510 (Acrylic, —OH)) “adequate solubility”; (in adhesive DURO-TAK 87-2510 (Acrylic, —OH), listed as API) 5%; (in adhesive DURO-TAK 87-2979 (acrylate-vinylacetate, —COOOH/—OH)) “adequate solubility”; (in adhesive DURO-TAK 87-2979 (acrylate-vinylacetate, —COOOH/—OH), listed as API) 10%. The API solubility entry (in adhesive DURO-TAK 87-4287 (acrylate-vinylacetate, —OH)) is given as “adequate solubility” and the API solubility (in adhesive DURO-TAK 87-4287 (acrylate-vinylacetate, —OH), listed as API) was 8%. Further, the solubility came out at 111 mg/mL (≈ 526 mM) in “physchem” (Brij 30, organic solvent or mixture); 122 mg/mL (≈ 577 mM) in “physchem” (Transcutal P, organic solvent or mixture); 86.1 mg/mL (≈ 407 mM) in the data set “physchem” (Tween 80, organic solvent or mixture); 34.3 mg/mL (≈ 162 mM) in “physchem” (ethyl acetate, organic solvent or mixture); 107 mg/mL (≈ 505 mM) in “physchem” (isopropyl alcohol, organic solvent or mixture); 5.34 mg/mL (≈ 25.3 mM) in the data set “physchem” (limonene, organic solvent or mixture). For the same compound, the solubility came out at 100 mg/mL (≈ 474 mM) in the data set “physchem” (methanol, organic solvent or mixture); 7.07 mg/mL (≈ 33.5 mM) in the data set “physchem” (methyl laurate, oil or lipid); 113 mg/mL (≈ 535 mM) in “physchem” (octanol, organic solvent or mixture); 59 mg/mL (≈ 279 mM) in “physchem” (oleic acid, oil or lipid); 113 mg/mL (≈ 535 mM) in the data set “physchem” (oleyl alcohol, oil or lipid); 55.6 mg/mL (≈ 263 mM) in “physchem” (propylene glycol (PG), organic solvent or mixture).

These data come from patent US11291656B2, “Pramipexole transdermal delivery system and uses thereof” (TRANSWELL BIOTECH CO., LTD., priority 2016, dated 2022).
